Measured values: patent US20250057864A1, “COMPOSITION FOR IMPROVING EXERCISE PERFORMANCE COMPRISING GYPENOSIDE COMPOUND AS ACTIVE INGREDIENT” (BTC CORPORATION, priority 2022, published 2025)

Legend:
[1] = tested on: GSY, SIRT1, PPARγ in C2C12 cells; assay: mRNA expression of genes related with energy in C2C12 cells; format: cell-based, mice; conditions: C2C12, 0.36 μg/mL (Cr 5 μg/mL), control G1 = 1.00
Method: (§1) C2C12 cells were dispensed into a 6-well plate at 2×10^5 cells/well and stabilized for 24 hours. In order to investigate the effect of each test substance on muscle cell differentiation, each test substance was added to the myocyte differentiation medium. The cells were cultured for 4 days (mRNA analysis) or 7 days (protein analysis) after exchanging the cell culture medium with the myocyte differentiation medium treated with each test substance, as shown in Table 2.
(§2) C2C12 cells were dispensed into a 6-well plate at 2×10^5 cells/well and stabilized for 24 hours. The cells were cultured for 2 or 4 days after replacing the cell culture with a myocyte differentiation medium containing the test substance. After collecting the cells, total RNA was isolated using an RNeasy Plus Mini kit (QIAGEN), and quantified using a micro-volume spectrophotometer (BioSpec-nano, Shimadzu). RNAs with an OD260/280 value greater than 1.8 were used for experiment.
(§3) After obtaining cDNA from the total RNA (2 μg) using a HyperScript™ RT master mix kit (GeneAll Biotechnology), real-time PCR was performed using a Rotor-Gene 300 PCR kit (Corbett Research) and a Rotor-Gene™ SYBR Green kit (QIAGEN). Quantitative analysis of the gene expression was performed using the Rotor-Gene 6000 Series System Software program (Corbett Research).
The result of investigating the effect of the compositions according to Examples 1 to 4 on the mRNA expression of GSY, SIRT1 and PPARγ involved in the energy metabolism of muscle cells is shown in Table 11.

[2] = tested on: gastrocnemius muscle (GA); assay: Glycogen content in muscle (gastrocnemius muscle, GA); format: in vivo, ICR mice; conditions: 6 weeks
Method: (§4) After an acclimatization period of 1 week, healthy animals were selected and divided into 6 groups according to the randomized block design. The animals were divided into (G1) a non-exercise control group, (G2) a non-exercise+7 mg/kg body weight (BW) Example 1 group, (G3) a non-exercise+7 mg/kg BW Example 2 group, (G4) a non-exercise+7 mg/kg BW Example 3 group, (G5) a non-exercise+7 mg/kg BW Example 4 group, (G6) an exercise control group, (G7) an exercise+7 mg/kg BW Example 1 group, (G8) an exercise+7 mg/kg BW Example 2 group, (G9) an exercise+7 mg/kg BW Example 3 group, (G10) an exercise+7 mg/kg BW Example 4 group, and (G11) an exercise+75 mg/kg BW Cr dose group. Each test group consisted of 10 animals.
A muscle tissue fluid was prepared to measure glycogen content and enzymatic activity in the muscle tissue. 1 mL of PBS was added to the extracted quadriceps femoris muscle (QF), gastrocnemius muscle (GA), soleus muscle (SOL) and extensor digitorum longus muscle (EDL), and the skeletal muscles were homogenized with a homogenizer. The homogenized solution was centrifuged at 5,000 rpm for 10 minutes and then used as a muscle tissue fluid. The amount of proteins in the muscle tissue was measured using a BCA protein assay kit (Thermo Scientific).
The glycogen content in the liver and skeletal muscle (GA) was measured using a glycogen assay kit according to the method presented by the manufacturer (Abcam).
Accordingly, the glycogen content in the muscle (GA) collected at the end of the test was measured.

soleus muscle (SOL) = assay: mRNA expression in soleus muscle (SOL), real-time RT-PCR; format: in vivo, ICR mice
Method: as §4
Total RNA was isolated from the muscle tissue (SOL) collected at the end of the test using a TRizol reagent (Thermo Fisher Scientific), and quantified using a micro-volume spectrophotometer (BioSpec-nano, Shimadzu). RNAs with OD260/280 values above 1.8 were used for experiment. After obtaining cDNA from the total RNA (2 μg) using a HyperScript™ RT master mix kit (GeneAll Biotechnology), real-time PCR was performed using a Rotor-Gene 300 PCR kit (Corbett Research) and a Rotor-Gene™ SYBR Green kit (QIAGEN). Quantitative analysis of the gene expression was performed using the Rotor-Gene 6000 Series System Software program (Corbett Research).
Muscle can be classified into slow muscle and fast muscle depending on the physiological rate of contraction. […] Therefore, the effect of endurance exercise training and the administration of the test substances on the expression of antioxidant-related genes (SOD2, GPx1, UCP2, UCP3), LDH-related genes (ERRα, LDH B, MCT1), mitochondrial synthesis-related genes (Tfam, CPT-1β, mtDNA, NRF1) and energy metabolism-related genes (PGC-1α, GYS, PPARγ, PPARδ) in the soleus muscle, which is a slow muscle, was investigated.

[3] = tested on: MHC1, MHC7, MHC2A, MHC2B, PGC-1α, PKB, FNDC5 in C2C12 cells; assay: mRNA expression of genes related with muscular strength type in C2C12 cells; format: cell-based, mice; conditions: C2C12, 0.36 μg/mL (Cr 5 μg/mL), control G1 = 1.00
Method: as §1, §2, §3
The effect of the compositions according to Examples 1 to 4 on the mRNA expression of MHC1, MHC7, MHC2A and MHC2B, which are responsible for muscular strength type, was investigated.
The result of investigating the effect of the compositions according to Examples 1 to 4 on the mRNA expression of PGC-1α, PKB and FNDC5 on the muscular strength type is shown in Table 10.

[4] = tested on: PGC1α, AMPK, p38, Nrf2 in gastrocnemius muscle (GA); assay: Western blot of proteins associated with PGC-1α activation in gastrocnemius muscle (GA); format: in vivo, ICR mice
[5] = treadmill exercise, 7 mg/kg BW (Cr 75 mg/kg BW)
[6] = SOL muscle, non-exercise, 7 mg/kg BW, G1 = 1.00
[7] = SOL muscle, treadmill exercise, 7 mg/kg BW (Cr 75 mg/kg BW), G1 = 1.00
[8] = GA muscle, non-exercise, 7 mg/kg BW, G1 = 1.00
[9] = GA muscle, treadmill exercise, 7 mg/kg BW (Cr 75 mg/kg BW), G1 = 1.00

CC(C)=CCC[C@](C)(O)C1CC[C@]2(C)C1[C@H](O)CC1[C@@]3(C)C[C@@H](O)C(OC4OC(CO)C(O)C(O)C4OC4OC(CO)C(O)C(O)C4O)C(C)(C)C3CC[C@]12C (stereo partly shown) [Example 1, Gypenoside L]
mRNA expression GSY [1]: 2.71 ± 0.32
mRNA expression PPARγ [1]: 1.16 ± 0.47
mRNA expression Sirt1 [1]: 1.40 ± 0.22
Glycogen content in 1 mg of GA ([2]; non-exercise, 7 mg/kg BW): 3.56 ± 0.15 μg/mg GA
Total glycogen content in GA ([2]; non-exercise, 7 mg/kg BW): 1442.1 ± 76.2 μg/GA
Glycogen content in 1 mg of GA [2, 5]: 3.38 ± 0.12^+ μg/mg GA
Total glycogen content in GA [2, 5]: 1404.4 ± 83.3^+ μg/GA
mRNA expression CPT-1β (soleus muscle (SOL); 7 mg/kg): 0.86 ± 0.04^++
mRNA expression ERRα (soleus muscle (SOL); 7 mg/kg): 1.41 ± 0.22
mRNA expression GPx1 (soleus muscle (SOL); 7 mg/kg): 3.28 ± 0.36^++
mRNA expression GSY (soleus muscle (SOL); 7 mg/kg): 0.27 ± 0.06
mRNA expression LDH B (soleus muscle (SOL); 7 mg/kg): 1.26 ± 0.46
mRNA expression MCT1 (soleus muscle (SOL); 7 mg/kg): 0.56 ± 0.25^+
mRNA expression NRF1 (soleus muscle (SOL); 7 mg/kg): 29.20 ± 3.10^++
mRNA expression PGC1α (soleus muscle (SOL); 7 mg/kg): 2.73 ± 0.51
mRNA expression PPARγ (soleus muscle (SOL); 7 mg/kg): 5.82 ± 1.27^+
mRNA expression PPARδ (soleus muscle (SOL); 7 mg/kg): 2.42 ± 0.45^+
mRNA expression SOD2 (soleus muscle (SOL); 7 mg/kg): 1.47 ± 0.13^+
mRNA expression Tfam (soleus muscle (SOL); 7 mg/kg): 1.98 ± 0.42^+
mRNA expression UCP2 (soleus muscle (SOL); 7 mg/kg): 6.91 ± 1.47^++
mRNA expression UCP3 (soleus muscle (SOL); 7 mg/kg): 0.64 ± 0.10
mRNA expression CPT-1β (soleus muscle (SOL); [6]): 0.34 ± 0.02
mRNA expression ERRα (soleus muscle (SOL); [6]): 1.67 ± 0.22
mRNA expression GPx1 (soleus muscle (SOL); [6]): 0.89 ± 0.10
mRNA expression GSY (soleus muscle (SOL); [6]): 2.60 ± 0.51
mRNA expression LDH B (soleus muscle (SOL); [6]): 1.76 ± 0.49
mRNA expression MCT1 (soleus muscle (SOL); [6]): 0.41 ± 0.03
mRNA expression NRF1 (soleus muscle (SOL); [6]): 15.52 ± 2.59
mRNA expression PGC1α (soleus muscle (SOL); [6]): 0.88 ± 0.08
mRNA expression PPARγ (soleus muscle (SOL); [6]): 0.25 ± 0.00
mRNA expression PPARδ (soleus muscle (SOL); [6]): 2.87 ± 0.95
mRNA expression SOD2 (soleus muscle (SOL); [6]): 1.16 ± 0.03
mRNA expression Tfam (soleus muscle (SOL); [6]): 4.74 ± 0.32
mRNA expression UCP2 (soleus muscle (SOL); [6]): 1.23 ± 0.05
mRNA expression UCP3 (soleus muscle (SOL); [6]): 0.51 ± 0.09
mRNA expression mtDNA (soleus muscle (SOL); [6]): 1.29 ± 0.12
mRNA expression mtDNA (soleus muscle (SOL); [7]): 4.66 ± 0.64^++
mRNA expression FNDC5 [3]: 2.97 ± 0.39
mRNA expression MHC1 [3]: 10.30 ± 1.75
mRNA expression MHC2A [3]: 1.54 ± 0.32
mRNA expression MHC2B [3]: 1.20 ± 0.12
mRNA expression MHC7 [3]: 1.80 ± 0.41
mRNA expression PGC-1α [3]: 11.75 ± 3.82
mRNA expression PKB [3]: 3.04 ± 0.46
p-AMPK/AMPK ratio ([4]; 7 mg/kg): 1.41 ± 0.14
p-Nrf2/Nrf2 ratio ([4]; 7 mg/kg): 1.30 ± 0.16
p-PGC1α/PGC1α ratio ([4]; 7 mg/kg): 1.98 ± 0.34^+
p-p38/p38 ratio ([4]; 7 mg/kg): 1.86 ± 0.13^+
p-AMPK/AMPK ratio [4, 8]: 1.22 ± 0.09
p-Nrf2/Nrf2 ratio [4, 8]: 1.02 ± 0.06
p-PGC1α/PGC1α ratio [4, 8]: 1.14 ± 0.07
p-p38/p38 ratio [4, 8]: 1.71 ± 0.16

CN(CC(=O)O)C(=N)N.O [Cr, Creatine monohydrate, reference compound]
mRNA expression PPARγ [1]: 2.93 ± 1.32
mRNA expression Sirt1 [1]: 1.13 ± 0.18
Glycogen content in 1 mg of GA [2, 5]: 3.32 ± 0.21^+ μg/mg GA
Total glycogen content in GA [2, 5]: 1350.5 ± 73.7^+ μg/GA
mRNA expression CPT-1β (soleus muscle (SOL); [7]): 0.95 ± 0.28^++
mRNA expression ERRα (soleus muscle (SOL); [7]): 0.58 ± 0.19^+
mRNA expression GPx1 (soleus muscle (SOL); [7]): 1.92 ± 0.29^+
mRNA expression GSY (soleus muscle (SOL); [7]): 0.92 ± 0.31
mRNA expression LDH B (soleus muscle (SOL); [7]): 0.35 ± 0.11^+
mRNA expression MCT1 (soleus muscle (SOL); [7]): 0.99 ± 0.31^++
mRNA expression NRF1 (soleus muscle (SOL); [7]): 9.17 ± 2.18
mRNA expression PGC1α (soleus muscle (SOL); [7]): 5.09 ± 1.22^+
mRNA expression PPARγ (soleus muscle (SOL); [7]): 0.29 ± 0.05
mRNA expression PPARδ (soleus muscle (SOL); [7]): 3.82 ± 0.90^++
mRNA expression SOD2 (soleus muscle (SOL); [7]): 1.52 ± 0.08^+
mRNA expression Tfam (soleus muscle (SOL); [7]): 1.34 ± 0.07^
mRNA expression UCP2 (soleus muscle (SOL); [7]): 14.96 ± 1.96^+++
mRNA expression UCP3 (soleus muscle (SOL); [7]): 0.87 ± 0.22
mRNA expression mtDNA (soleus muscle (SOL); [7]): 1.69 ± 0.20^
mRNA expression FNDC5 [3]: 1.83 ± 0.47
mRNA expression MHC1 [3]: 4.50 ± 1.43
mRNA expression MHC2A [3]: 1.74 ± 0.22
mRNA expression MHC2B [3]: 1.10 ± 0.10
mRNA expression MHC7 [3]: 7.87 ± 2.66
mRNA expression PGC-1α [3]: 1.54 ± 1.10
mRNA expression PKB [3]: 2.18 ± 0.51
p-AMPK/AMPK ratio [4, 9]: 1.43 ± 0.13
p-Nrf2/Nrf2 ratio [4, 9]: 1.35 ± 0.17
p-PGC1α/PGC1α ratio [4, 9]: 2.28 ± 0.84^++
p-p38/p38 ratio [4, 9]: 1.94 ± 0.16^+
